According to patent publication US20090017139A1, “Iodine therapy dosing for treating medical conditions” (priority 2007, published 2009):

How the values were obtained:
breast cancer cell lines = details: cited from earlier work
[1] = system: female patients with fibrocystic breast condition; test: Example 2: 36 month study, treatment emergent thyroid status in iodine adapted patients; format: in vivo, human; details: for Hyperthyroidism Overt ↓TSH ↑T4 / Hyperthyroidism Subclinical ↓TSH / Hypothyroidism Overt ↑TSH (5-10) ↓T4 / Hypothyroidism Overt ↑TSH (10-20) ↓T4 / Hypothyroidism Overt ↑TSH (>20) ↓T4 / Hypothyroidism Subclinical ↑TSH (5-10) / Hypothyroidism Subclinical ↑TSH (10-20) / Hypothyroidism Subclinical ↑TSH (>20): iodine adapted, patients (percent of dose group)
Description: Female patients already receiving aqueous I2 therapy for fibrocystic breast condition were enrolled in study that ran for 36 months. Patients in this study were dosed at I2 levels that ranged from 3 to 12 mg/d. A total of 923 patients were enrolled; over 700 patients remained on drug for at least 2 years. The ages of participants ranged from 17 to 78 years with an average age of 47.4 years.
Variations in treatment emergent thyroid status were evaluated based on TSH and T4 values (see Table 1). […] Patients were categorized sub-clinical hypothyroid if TSH was elevated and T4 values were normal; patients with depressed T4 values were considered overtly hypothyroid.

[2] = system: euthyroid mastalgia patients; test: Example 1: multi-center, randomized, double-blind, placebo-controlled 6 month mastalgia study; format: in vivo, human; details: for change in the Lewin Overall pain scale: 6.0 mg/d
Description: A multi-center, randomized, double-blind, placebo-controlled study dosed patients for 6 months with 0.0, 1.5, 3.0 and 6.0 mg I2 daily. Healthy euthyroid mastalgia patients between the ages of 18 and 50 who were unresponsive to conservative treatments like OTC analgesics were eligible for the study. Subjects needed to identify a history of at least six months of moderate or severe breast pain and document at least 6 days per cycle of moderate or severe pain in a daily dairy (FIG. 1 below).

[3] = I2 compared to iodide, cited from earlier work
iodine naive women = test: Example 3: I2 safety study, treatment emergent thyroid status in iodine naive women; format: in vivo, human; details: for Hyperthyroidism Overt ↓TSH ↑T4 / Hyperthyroidism Sub-clinical ↓TSH / Hypothyroidism Overt ↑TSH (5-10) ↓T4 / Hypothyroidism Overt ↑TSH (10-20) ↓T4 / Hypothyroidism Overt ↑TSH (>20) ↓T4 / Hypothyroidism Sub-clinical ↑TSH (5-10) / Hypothyroidism Sub-clinical ↑TSH (10-20) / Hypothyroidism Sub-clinical ↑TSH (>20): iodine naive, patients (percent of dose group)
Description: A second I2 safety study was conducted in women not previously exposed to iodine therapy (iodine naïve). […] Thyroid functions laboratory values were available for 365 patients. The age of the female participants ranged from 20 to 55; the average age was 42.4 years. Variations in treatment emergent thyroid status were evaluated based on TSH and T4 values (see Table 2). […] Patients were categorized sub-clinical hypothyroid if TSH was elevated and T4 values were normal; patients with depressed T4 values were considered overtly hypothyroid.
Sub-clinical hyperthyroidism is not correlated to an increased rate of either overt hyperthyroidism or overt hypothyroidism. On the other hand, it is well established that sub-clinical hypothyroidism is a risk factor for overt hypothyroidism. In fact, as stated in Example 2, antibodies to thyroid peroxidase combined with sub-clinical hypothyroidism are established risk factors for overt thyroid disease in women between the age of 30 and 50. Therefore the key question is whether or not dose is related to the frequency of sub-clinical hypothyroidism. Kendall's rank correlation was used to evaluate the relationship between dose and frequency of sub-clinical hypothyroidism.

SMILES: II [I2, molecular iodine]
- effect on estrogen receptor concentration (breast cancer cell lines): reducing the concentration of estrogen receptor
- proportion of patients with sub-clinical hypothyroidism ([1]; 3 mg dose group): 13%
- rate of all sub-clinical conditions ([1]; 3 mg dose group): 18.3%
- proportion of patients with sub-clinical hypothyroidism ([1]; 6 mg dose group): 16.5%
- rate of all sub-clinical conditions ([1]; 6 mg dose group): 22.2%
- Hyperthyroidism Overt ↓TSH ↑T4 ([1]; I2 3.0 mg/d): 1 (0.3)
- Hyperthyroidism Subclinical ↓TSH ([1]; I2 3.0 mg/d): 16 (5.3)
- Hypothyroidism Overt ↑TSH (5-10) ↓T4 ([1]; I2 3.0 mg/d): 2 (0.4)
- Hypothyroidism Overt ↑TSH (10-20) ↓T4 ([1]; I2 3.0 mg/d): 0 (0.0)
- Hypothyroidism Overt ↑TSH (>20) ↓T4 ([1]; I2 3.0 mg/d): 0 (0.0)
- Hypothyroidism Subclinical ↑TSH (5-10) ([1]; I2 3.0 mg/d): 27 (9.0)
- Hypothyroidism Subclinical ↑TSH (10-20) ([1]; I2 3.0 mg/d): 10 (3.3)
- Hypothyroidism Subclinical ↑TSH (>20) ([1]; I2 3.0 mg/d): 2 (0.7)
- Hyperthyroidism Overt ↓TSH ↑T4 ([1]; I2 6.0 mg/d): 1 (0.2)
- Hyperthyroidism Subclinical ↓TSH ([1]; I2 6.0 mg/d): 28 (5.7)
- Hypothyroidism Overt ↑TSH (5-10) ↓T4 ([1]; I2 6.0 mg/d): 0 (0.0)
- Hypothyroidism Overt ↑TSH (10-20) ↓T4 ([1]; I2 6.0 mg/d): 2 (0.4)
- Hypothyroidism Overt ↑TSH (>20) ↓T4 ([1]; I2 6.0 mg/d): 2 (0.4)
- Hypothyroidism Subclinical ↑TSH (5-10) ([1]; I2 6.0 mg/d): 70 (14)
- Hypothyroidism Subclinical ↑TSH (10-20) ([1]; I2 6.0 mg/d): 10 (2.0)
- Hypothyroidism Subclinical ↑TSH (>20) ([1]; I2 6.0 mg/d): 1 (0.2)
- Hyperthyroidism Overt ↓TSH ↑T4 ([1]; I2 9.0 mg/d): 0 (0.0)
- Hyperthyroidism Subclinical ↓TSH ([1]; I2 9.0 mg/d): 0 (0.0)
- Hypothyroidism Overt ↑TSH (5-10) ↓T4 ([1]; I2 9.0 mg/d): 0 (0.0)
- Hypothyroidism Overt ↑TSH (10-20) ↓T4 ([1]; I2 9.0 mg/d): 0 (0.0)
- Hypothyroidism Overt ↑TSH (>20) ↓T4 ([1]; I2 9.0 mg/d): 0 (0.0)
- Hypothyroidism Subclinical ↑TSH (5-10) ([1]; I2 9.0 mg/d): 0 (0.0)
- Hypothyroidism Subclinical ↑TSH (10-20) ([1]; I2 9.0 mg/d): 1 (6.3)
- Hypothyroidism Subclinical ↑TSH (>20) ([1]; I2 9.0 mg/d): 1 (6.3)
- Hyperthyroidism Overt ↓TSH ↑T4 ([1]; I2 12.0 mg/d): 0 (0.0)
- Hyperthyroidism Subclinical ↓TSH ([1]; I2 12.0 mg/d): 1 (25)
- Hypothyroidism Overt ↑TSH (5-10) ↓T4 ([1]; I2 12.0 mg/d): 0 (0.0)
- Hypothyroidism Overt ↑TSH (10-20) ↓T4 ([1]; I2 12.0 mg/d): 0 (0.0)
- Hypothyroidism Overt ↑TSH (>20) ↓T4 ([1]; I2 12.0 mg/d): 0 (0.0)
- Hypothyroidism Subclinical ↑TSH (5-10) ([1]; I2 12.0 mg/d): 0 (0.0)
- Hypothyroidism Subclinical ↑TSH (10-20) ([1]; I2 12.0 mg/d): 0 (0.0)
- Hypothyroidism Subclinical ↑TSH (>20) ([1]; I2 12.0 mg/d): 0 (0.0)
- Overt hypothyroidism, patients (second statement, compared to prevalence of overt hyperthyroidism) ([1]; all patients, 3 to 12 mg/d): 0.5%
- overall incidence of treatment emergent sub-clinical hyper- or hypothyroidism ([1]; all patients, 3 to 12 mg/d): 20.6%
- Overt hypothyroidism, patients ([1]; all patients, 3 to 12 mg/d, first statement): 0.2%
- change in the Lewin Overall pain scale ([2]; month 3): 45.4%
- change in the Lewin Overall pain scale ([2]; month 6): 45.0%
- magnitude of pain reduction versus dose ([2]; 1.5, 3.0, 6.0 mg daily, month 3 and month 6 (p<0.01)): increased with dose
- difference among dosing groups in adverse events or thyroid related clinical chemistry tests ([2]; first 3 months of treatment): did not find any difference
- percentage of administered iodine retained in the stomach contents and covalently bound to a lipid material [3]: larger percentage
- percentage of iodine retained in thyroid 72 hours after administration, compared to iodide [3]: significantly less
- retention of iodine in thyroid at 72 hours, less than with iodide ([3]; fasted rats, acute exposure): about 30%
- Hyperthyroidism Overt ↓TSH ↑T4 (iodine naive women; I2 2.0 mg/d): 0 (0.0)
- Hyperthyroidism Sub-clinical ↓TSH (iodine naive women; I2 2.0 mg/d): 2 (3.4)
- Hypothyroidism Overt ↑TSH (5-10) ↓T4 (iodine naive women; I2 2.0 mg/d): 1 (1.7)
- Hypothyroidism Overt ↑TSH (10-20) ↓T4 (iodine naive women; I2 2.0 mg/d): 0 (0.0)
- Hypothyroidism Overt ↑TSH (>20) ↓T4 (iodine naive women; I2 2.0 mg/d): 0 (0.0)
- Hypothyroidism Sub-clinical ↑TSH (5-10) (iodine naive women; I2 2.0 mg/d): 3 (5.2)
- Hypothyroidism Sub-clinical ↑TSH (10-20) (iodine naive women; I2 2.0 mg/d): 2 (3.4)
- Hypothyroidism Sub-clinical ↑TSH (>20) (iodine naive women; I2 2.0 mg/d): 0 (0.0)
- Hyperthyroidism Overt ↓TSH ↑T4 (iodine naive women; I2 3.0 mg/d): 2 (3.2)
- Hyperthyroidism Sub-clinical ↓TSH (iodine naive women; I2 3.0 mg/d): 0 (0.0)
- Hypothyroidism Overt ↑TSH (5-10) ↓T4 (iodine naive women; I2 3.0 mg/d): 0 (0.0)
- Hypothyroidism Overt ↑TSH (10-20) ↓T4 (iodine naive women; I2 3.0 mg/d): 0 (0.0)
- Hypothyroidism Overt ↑TSH (>20) ↓T4 (iodine naive women; I2 3.0 mg/d): 0 (0.0)
- Hypothyroidism Sub-clinical ↑TSH (5-10) (iodine naive women; I2 3.0 mg/d): 5 (8.1)
- Hypothyroidism Sub-clinical ↑TSH (10-20) (iodine naive women; I2 3.0 mg/d): 0 (0.0)
- Hypothyroidism Sub-clinical ↑TSH (>20) (iodine naive women; I2 3.0 mg/d): 0 (0.0)
- Hyperthyroidism Overt ↓TSH ↑T4 (iodine naive women; I2 6.0 mg/d): 0 (0.0)
- Hyperthyroidism Sub-clinical ↓TSH (iodine naive women; I2 6.0 mg/d): 2 (3.3)
- Hypothyroidism Overt ↑TSH (5-10) ↓T4 (iodine naive women; I2 6.0 mg/d): 0 (0.0)
- Hypothyroidism Overt ↑TSH (10-20) ↓T4 (iodine naive women; I2 6.0 mg/d): 0 (0.0)
- Hypothyroidism Overt ↑TSH (>20) ↓T4 (iodine naive women; I2 6.0 mg/d): 1 (1.7)
- Hypothyroidism Sub-clinical ↑TSH (5-10) (iodine naive women; I2 6.0 mg/d): 6 (10)
- Hypothyroidism Sub-clinical ↑TSH (10-20) (iodine naive women; I2 6.0 mg/d): 0 (0.0)
- Hypothyroidism Sub-clinical ↑TSH (>20) (iodine naive women; I2 6.0 mg/d): 0 (0.0)
- Hyperthyroidism Overt ↓TSH ↑T4 (iodine naive women; I2 9.0 mg/d): 2 (3.5)
- Hyperthyroidism Sub-clinical ↓TSH (iodine naive women; I2 9.0 mg/d): 2 (3.5)
- Hypothyroidism Overt ↑TSH (5-10) ↓T4 (iodine naive women; I2 9.0 mg/d): 2 (3.5)
- Hypothyroidism Overt ↑TSH (10-20) ↓T4 (iodine naive women; I2 9.0 mg/d): 0 (0.0)
- Hypothyroidism Overt ↑TSH (>20) ↓T4 (iodine naive women; I2 9.0 mg/d): 1 (1.8)
- Hypothyroidism Sub-clinical ↑TSH (5-10) (iodine naive women; I2 9.0 mg/d): 8 (14)
- Hypothyroidism Sub-clinical ↑TSH (10-20) (iodine naive women; I2 9.0 mg/d): 0 (0.0)
- Hypothyroidism Sub-clinical ↑TSH (>20) (iodine naive women; I2 9.0 mg/d): 0 (0.0)
- Hyperthyroidism Overt ↓TSH ↑T4 (iodine naive women; I2 .03 mg/d): 0 (0.0)
- Hyperthyroidism Sub-clinical ↓TSH (iodine naive women; I2 .03 mg/d): 1 (1.5)
- Hypothyroidism Overt ↑TSH (5-10) ↓T4 (iodine naive women; I2 .03 mg/d): 0 (0.0)
- Hypothyroidism Overt ↑TSH (10-20) ↓T4 (iodine naive women; I2 .03 mg/d): 0 (0.0)
- Hypothyroidism Overt ↑TSH (>20) ↓T4 (iodine naive women; I2 .03 mg/d): 0 (0.0)
- Hypothyroidism Sub-clinical ↑TSH (5-10) (iodine naive women; I2 .03 mg/d): 3 (4.6)
- Hypothyroidism Sub-clinical ↑TSH (10-20) (iodine naive women; I2 .03 mg/d): 0 (0.0)
- Hypothyroidism Sub-clinical ↑TSH (>20) (iodine naive women; I2 .03 mg/d): 0 (0.0)
- relationship between daily dose and frequency of sub-clinical hypothyroidism (iodine naive women; Kendall's rank correlation p 0.0167, Cuzik's trend test p less than 0.01): correlated to the frequency of sub-clinical hypothyroidism
- Overt hypothyroidism, patients (second statement, compared to prevalence of overt hyperthyroidism) (iodine naive women; iodine naive patients): 1.6%
- incidence of abnormal thyroid function, placebo versus treatment groups (iodine naive women; iodine naive patients, Fisher's exact test): did not differ
- Overt hypothyroidism, patients (iodine naive women; iodine naive patients, first statement): 1.3%
